Measurements from US8263606B2 (Xenon Pharmaceuticals Inc., priority 2008, dated 2012).

Assays:
sodium channel = experiment: Guanidine influx assay (14C-guanidine radiotracer flux, in vitro); assay type: cell-based, human or rat; details: guanidine influx assay using a known cell line that expresses a sodium channel
Method in brief: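 IC50 derives from a four-parameter logistic fit of 14C-guanidine uptake, test agent serially half-diluted around a 1 μM midpoint. Flux was driven by aconitine in low-sodium HEPES/choline saline at ambient temperature, using endogenous or recombinant human or rat sodium-channel cell lines plated ~100,000/well for 20–24 h.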

CYP3A4 = CYP3A4 (Homo sapiens, UniProt P08684); experiment: Cytochrome P450 (CYP450) Inhibition Assay, CYP3A4 (Vivid fluorescence, BOMCC substrate); details: human, P450 Baculosomes (recombinant CYP3A4), probe BOMCC (Vivid substrate)
CYP3A4, sequence (P08684 whole entry): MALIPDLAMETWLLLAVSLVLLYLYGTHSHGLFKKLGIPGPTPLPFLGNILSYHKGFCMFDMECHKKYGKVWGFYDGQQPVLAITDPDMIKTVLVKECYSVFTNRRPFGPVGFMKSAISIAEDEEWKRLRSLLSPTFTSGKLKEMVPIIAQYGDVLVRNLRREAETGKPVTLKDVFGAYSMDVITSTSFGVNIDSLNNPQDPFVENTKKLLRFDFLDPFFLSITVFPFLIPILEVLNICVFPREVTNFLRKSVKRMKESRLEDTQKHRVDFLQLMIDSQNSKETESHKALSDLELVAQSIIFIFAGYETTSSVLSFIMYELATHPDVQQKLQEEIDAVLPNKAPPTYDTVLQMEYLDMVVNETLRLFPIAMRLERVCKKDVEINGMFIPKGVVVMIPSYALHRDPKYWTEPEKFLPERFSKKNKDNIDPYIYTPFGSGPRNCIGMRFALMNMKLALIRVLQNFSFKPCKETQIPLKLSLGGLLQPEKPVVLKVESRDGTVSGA

IC50 (sodium channel)	inhibition at 10 µM (CYP3A4)	melting point	IC50 (sodium channel; activity level class)	SMILES
–	> 50%	200 to 202 °C	1 to 100 nM	N#CCCN1C(=O)C2(COc3cc4c(cc32)OCO4)c2ccccc21 (stereo not drawn) [Example 4.80, 3-(2′-oxospiro[furo[2,3-f][1,3]benzodioxole-7,3′-indol]-1′(2′H)-yl)propanenitrile]
–	> 50%	147 to 149 °C	1 to 100 nM	O=C1N(C[C@H]2COCCO2)c2ccccc2C12COc1cc3c(cc12)OCO3 (stereo partly drawn) [Example 8, 1′-[(2S)-1,4-dioxan-2-ylmethyl]spiro[furo[2,3-f][1,3]benzodioxole-7,3′-indol]-2′(1′H)-one]
–	> 50%	188 to 190 °C	1 to 100 nM	O=C1N(Cc2ccccc2CF)c2ccccc2C12COc1cc3c(cc12)OCCO3 (stereo not drawn) [Example 4.93]
1000 to 10000 nM	< 50%	122 to 126 °C	–	O=C1N(C[C@H]2OC(O)[C@H](O)[C@@H](O)[C@H]2O)c2ccccc2C12COc1cc3c(cc12)OCCO3 (stereo partly drawn) [Example 20, 6-deoxy-6-(2′-oxo-2,3-dihydrospiro[furo[2,3-g][1,4]benzodioxine-8,3′-indol]-1′(2′H)-yl)-D-galactopyranose]
–	> 50%	183 to 185 °C	1 to 100 nM	Cc1cccc(CN2C(=O)C3(COc4cc5c(cc43)OCCO5)c3ccccc32)n1 (stereo not drawn) [Example 1.1, 1′-[(6-methylpyridin-2-yl)methyl]-2,3-dihydrospiro[furo[2,3-g][1,4]benzodioxine-8,3′-indol]-2′(1′H)-one]
–	< 50%	129 to 131 °C	1 to 100 nM	O=C1N(CC2CCOCC2)c2ccccc2C12COc1cc3c(cc12)OCCO3 (stereo not drawn) [Example 4.37, 1′-(tetrahydro-2H-pyran-4-ylmethyl)-2,3-dihydrospiro[furo[2,3-g][1,4]benzodioxine-8,3′-indol]-2′(1′H)-one]
–	< 50%	> 300 °C	1000 to 10000 nM	O=C1N(Cc2cc(=O)[nH]c(=O)[nH]2)c2ccccc2C12COc1cc3c(cc12)OCO3 (stereo not drawn) [Example 5.38, 6-[(2′-oxospiro[furo[2,3-f][1,3]benzodioxole-7,3′-indol]-1′(2′H)-yl)methyl]pyrimidine-2,4(1H,3H)-dione]
–	< 50%	161 to 162 °C	1 to 100 nM	COc1ccc(CN2C(=O)C3(COc4cc5c(cc43)OCCO5)c3ccccc32)cn1 (stereo not drawn) [Example 5.15, 1′-[(6-methoxypyridin-3-yl)methyl]-2,3-dihydrospiro[furo[2,3-g][1,4]-benzodioxine-8,3′-indol]-2′(1′H)-one]
–	< 50%	228 to 231 °C	1 to 100 nM	O=C1N(Cc2cc(F)ccn2)c2ccccc2C12COc1cc3c(cc12)OCCO3 (stereo not drawn) [Example 4.110, 1-[(4-fluoropyridin-2-yl)methyl]-2,3-dihydrospiro[furo[2,3-g][1,4]benzodioxine-8,3′-indol]-2′(1′H)-one]

Second part, the compound before the results:

SMILES	IC50 (sodium channel)	inhibition at 10 µM (CYP3A4)	melting point	IC50 (sodium channel; activity level class)
CC1(C)O[C@H]2[C@@H](O1)[C@@H](CN1C(=O)C3(COc4cc5c(cc43)OCCO5)c3ccccc31)O[C@@H]1OC(C)(C)O[C@@H]12 (stereo partly drawn) [Example 19, 1′-{[(3aR,5R,5aS,8aS,8bR)-2,2,7,7-tetramethyltetrahydro-3aH-bis[1,3]dioxolo[4,5-b:4′,5′-d]pyran-5-yl]methyl}-2,3-dihydrospiro[furo[2,3-g][1,4]benzodioxine-8,3′-indol]-2′(1′H)-one]	1000 to 10000 nM	< 50%	112 to 118 °C	–
Cc1ccc(NC(=O)c2ccccc2CN2C(=O)C3(COc4cc5c(cc43)CCO5)c3ccccc32)c(C)c1 (stereo not drawn) [Example 12.10, N-(2,4-dimethylphenyl)-2-[(2′-oxo-5,6-dihydrospiro[benzo[1,2-b:5,4-b′]difuran-3,3′-indol]-1′(2′H)-yl)methyl]benzamide]	1000 to 10000 nM	> 50%	207 to 208 °C	–
COc1cc2c(cc1F)C1(CO2)C(=O)N(Cc2ccc(C(F)(F)F)o2)c2ccccc21 (stereo not drawn) [Example 9.30, 5-fluoro-6-methoxy-1′-{[5-(trifluoromethyl)furan-2-yl]methyl}spiro[1-benzofuran-3,3′-indol]-2′(1′H)-one]	–	> 50%	45 to 47 °C	100 to 1000 nM
O=C1Nc2ccccc2C12COc1cc3c(cc12)OCCCO3 (stereo not drawn) [Example 3.11, 3,4-dihydro-2H-spiro[furo[2,3-h][1,5]benzodioxepine-9,3′-indol]-2′(1′H)-one]	–	< 50%	235 to 236 °C	1000 to 10000 nM
O=C1N(Cc2cc(-c3ccc(Cl)cc3)oc2C(F)(F)F)c2ccccc2C12COc1cc3c(cc12)OCO3 (stereo not drawn) [Example 1.15, 1′-{[5-(4-chlorophenyl)-2-(trifluoromethyl)furan-3-yl]methyl}spiro[furo[2,3-f][1,3]benzodioxole-7,3′-indol]-2′(1′H)-one]	–	< 50%	114 to 116 °C	1000 to 10000 nM
O=C(O)c1ccc(CN2C(=O)C3(COc4cc5c(cc43)OCCO5)c3ccccc32)cc1 (stereo not drawn) [Example 11.87, 4-[(2′-oxo-2,3-dihydrospiro[furo[2,3-g][1,4]benzodioxine-8,3′-indol]-1′(2′H)-yl)methyl]benzoic acid]	1000 to 10000 nM	< 50%	234 to 237 °C	–
CN1C(=O)CC[C@H]1CN1C(=O)C2(COc3cc4c(cc32)CCO4)c2ccccc21 (stereo partly drawn) [Example 11.70, 1′-{[(2S)-1-methyl-5-oxopyrrolidin-2-yl]methyl}-5,6-dihydrospiro[benzo[1,2-b:5,4-b′]difuran-3,3′-indol]-2′(1′H)-one]	1000 to 10000 nM	> 50%	72 to 76 °C	–
O=C1N(CC2CN(Cc3ccccc3)CCO2)c2ccccc2C12COc1cc3c(cc12)OCCO3 (stereo not drawn) [Example 9.60, 1′-[(4-benzylmorpholin-2-yl)methyl]-2,3-dihydrospiro[furo[2,3-g][1,4]benzodioxine-8,3′-indol]-2′(1′H)-one]	100 to 1000 nM	> 50%	88 to 100 °C	–
O=C1N(Cc2ccc(N3CCOCC3)nc2)c2ccccc2C12COc1cc3c(cc12)OCCO3 (stereo not drawn) [Example 32, 1′-[(6-morpholin-4-ylpyridin-3-yl)methyl]-2,3-dihydrospiro[furo[2,3-g][1,4]benzodioxine-8,3′-indol]-2′(1′H)-one]	1 to 100 nM	> 50%	117 to 119 °C	–
CN1C(=O)[C@]2(COc3cc4c(cc32)OCO4)c2c(-c3ccoc3)cccc21 [Example 16.62, (7R)-4′-furan-3-yl-1′-methylspiro[furo[2,3-f][1,3]benzodioxole-7,3′-indol]-2′(1′H)-one]	100 to 1000 nM	> 50%	144 to 145 °C	–
O=C1N(Cc2cnccn2)c2ccccc2C12COc1cc3c(cc12)CCO3 (stereo not drawn) [Example 9.7, 1′-(pyrazin-2-ylmethyl)-5,6-dihydrospiro[benzo[1,2-b:5,4-b′]difuran-3,3′-indol]-2′(1′H)-one]	–	< 50%	143 to 144 °C	1 to 100 nM
Cc1nc2cc3c(cc2o1)C1(CO3)C(=O)N(C[C@H]2CCCO2)c2ccccc21 (stereo partly drawn) [Example 4.58, 2-methyl-1′-[(2R)-tetrahydrofuran-2-ylmethyl]spiro[furo[2,3-f][1,3]benzoxazole-7,3′-indol]-2′(1′H)-one]	–	< 50%	188 to 190 °C	1000 to 10000 nM
COc1ccc(CN2C(=O)C3(COc4cc(OC)c(C#N)cc43)c3ccccc32)cc1 (stereo not drawn) [Example 9.46, 6-methoxy-1′-(4-methoxybenzyl)-2′-oxo-1′,2′-dihydrospiro[1-benzofuran-3,3′-indole]-5-carbonitrile]	–	> 50%	207 to 208 °C	100 to 1000 nM
Cl.O=C1N(C[C@H]2CCCO2)c2ccccc2C12COc1cc(O[C@H]3CCNC3)ccc12 (stereo partly drawn) [Example 11.56, 6-[(3S)-pyrrolidin-3-yloxy]-1′-[(2R)-tetrahydrofuran-2-ylmethyl]spiro[1-benzofuran-3,3′-indol]-2′(1′H)-one hydrochloride]	1000 to 10000 nM	< 50%	119 to 121 °C	–
O=C1N(C(c2ccccc2)c2ccccc2)c2ccccc2C12COc1cc(F)c(F)cc12 (stereo not drawn) [Example 2.61, 1′-(diphenylmethyl)-5,6-difluorospiro[1-benzofuran-3,3′-indol]-2′(1′H)-one]	–	< 50%	213 to 216 °C	≥ 10000 nM
Cc1nc2cc3c(cc2o1)C1(CO3)C(=O)Nc2ccccc21 (stereo not drawn) [Example 3.12, 2-methylspiro[furo[2,3-f][1,3]benzoxazole-7,3′-indol]-2′(1′H)-one]	–	< 50%	242 to 244 °C	≥ 10000 nM
Cc1noc2cc3c(cc12)C1(CO3)C(=O)N(Cc2ncccc2F)c2ccccc21 (stereo not drawn) [Example 9.57, 1′-[(3-fluoropyridin-2-yl)methyl]-3-methylspiro[furo[3,2-f][1,2]benzisoxazole-5,3′-indol]-2′(1′H)-one]	100 to 1000 nM	< 50%	167 to 169 °C	–
Cc1noc(-c2cccc(CN3C(=O)C4(COc5cc6c(cc54)OCCO6)c4ccccc43)c2)n1 (stereo not drawn) [Example 28, 1′-[3-(3-methyl-1,2,4-oxadiazol-5-yl)benzyl]-2,3-dihydrospiro[furo[2,3-g][1,4]benzodioxine-8,3′-indol]-2′(1′H)-one]	1 to 100 nM	< 50%	80 to 89 °C	–
O=C1N(CCCOCc2ccccc2)c2ccccc2C12COc1cc3c(cc12)CCO3 (stereo not drawn) [Example 9.17, 1′-[3-(benzyloxy)propyl]-5,6-dihydrospiro[benzo[1,2-b:5,4-b′]difuran-3,3′-indol]-2′(1′H)-one]	–	> 50%	112 to 113 °C	100 to 1000 nM
